Like-named read-outs stand apart in the source and are kept apart here.
Assays:
[1] = Liver microsomes metabolic stability assay, mouse; type: in vitro ADME; settings: male, mouse liver microsomes 0.5 mg/mL, 37° C.; for half-life at 2 μM: read-out: t1/2 Mouse
Description: (§1) Example 203 Liver Microsomes Metabolic Stability Assay
(§2) Pooled human liver microsomes (Cat. 452117) were purchased from Corning. Pooled male rat liver microsomes (Cat. R1000) and pooled male mouse liver microsomes (Cat. M1000) were purchased from XENOTECH. Microsomes were stored at −80° C.
(§3) 1) Make a master solution containing phosphate buffer, ultra-pure H2O and MgCl2 solution according to Table 14.
(§4) 2) Two separated experiments were performed as follows.
(§5) a) With NADPH: 10 μL of 20 mg/mL liver microsomes and 40 μL of 10 mM NADPH were added to the incubations. The final concentrations of microsomes and NADPH were 0.5 mg/mL and 1 mM, respectively.
(§6) b) Without NADPH: 10 μL of 20 mg/mL liver microsomes and 40 μL of ultra-pure H2O were added to the incubations. The final concentration of microsomes was 0.5 mg/mL.
(§7) 3) The reaction was started with the addition of 4 μL test compounds solutions or control compound solution (verapamil) at the final concentration of 2 μM and carried out at 37° C.
(§8) 4) Aliquots of 50 μL were taken from the reaction solution at 0, 15, 30, 45 and 60 min. The reaction solutions were stopped by the addition of 4 volumes of cold acetonitrile with 1S (100 nM alprazolam, 200 nM caffeine, 200 nM labetalol and 2 μM ketoprofen). Samples were centrifuged at 3,220 g for 40 minutes. Aliquot of 100 μL of the supernatant was mixed with 100 μL of ultra-pure H2O and then used for LC-MS/MS analysis. All experiments were performed in duplicate.
(§9) The slope value, k, was determined by linear regression of the natural logarithm of the remaining percentage of the parent drug vs. incubation time curve.
(§10) The in vitro half-life (in vitro t1/2) was determined from the slope value:
(§11) Conversion of the in vitro t1/2 (in min) into the in vitro intrinsic clearance (in vitro CLint, in μL/min/mg proteins) was done using the following equation (mean of duplicate determinations): […]
(§12) The control compound (verapamil) was included in the assay. Any value of the compounds that was not within the specified limits will be rejected and the experiment will be repeated.

[2] = target: TrkA kinase (Homo sapiens, UniProt P04629); test: TrkA kinase assay (mobility shift assay); type: biochemical; settings: read-out: Trk A Kinase IC50
Procedure, shortened: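 Caliper mobility-shift readout of FAM-labelled peptide conversion by TrkA in 50 mM HEPES pH 7.5, 0.0015% Brij-35, with ATP; enzyme preincubated 10 min with compound (10-point dilution), reaction at 28 °C, EDTA stop. Inhibition relative to DMSO and no-enzyme controls; IC50 by four-parameter fit.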

[3] = Liver microsomes metabolic stability assay, human; type: in vitro ADME; settings: human liver microsomes 0.5 mg/mL, 37° C.; for half-life at 2 μM: read-out: t1/2 Human
Description: as §1, §2, §3, §4, §5, §6, §7, §8, §9, §10, §11, §12

[4] = Liver microsomes metabolic stability assay, rat; type: in vitro ADME; settings: male, rat liver microsomes 0.5 mg/mL, 37° C.; for half-life at 2 μM: read-out: t1/2 Rat
Description: as §1, §2, §3, §4, §5, §6, §7, §8, §9, §10, §11, §12

TrkA kinase, sequence (P04629 33-796): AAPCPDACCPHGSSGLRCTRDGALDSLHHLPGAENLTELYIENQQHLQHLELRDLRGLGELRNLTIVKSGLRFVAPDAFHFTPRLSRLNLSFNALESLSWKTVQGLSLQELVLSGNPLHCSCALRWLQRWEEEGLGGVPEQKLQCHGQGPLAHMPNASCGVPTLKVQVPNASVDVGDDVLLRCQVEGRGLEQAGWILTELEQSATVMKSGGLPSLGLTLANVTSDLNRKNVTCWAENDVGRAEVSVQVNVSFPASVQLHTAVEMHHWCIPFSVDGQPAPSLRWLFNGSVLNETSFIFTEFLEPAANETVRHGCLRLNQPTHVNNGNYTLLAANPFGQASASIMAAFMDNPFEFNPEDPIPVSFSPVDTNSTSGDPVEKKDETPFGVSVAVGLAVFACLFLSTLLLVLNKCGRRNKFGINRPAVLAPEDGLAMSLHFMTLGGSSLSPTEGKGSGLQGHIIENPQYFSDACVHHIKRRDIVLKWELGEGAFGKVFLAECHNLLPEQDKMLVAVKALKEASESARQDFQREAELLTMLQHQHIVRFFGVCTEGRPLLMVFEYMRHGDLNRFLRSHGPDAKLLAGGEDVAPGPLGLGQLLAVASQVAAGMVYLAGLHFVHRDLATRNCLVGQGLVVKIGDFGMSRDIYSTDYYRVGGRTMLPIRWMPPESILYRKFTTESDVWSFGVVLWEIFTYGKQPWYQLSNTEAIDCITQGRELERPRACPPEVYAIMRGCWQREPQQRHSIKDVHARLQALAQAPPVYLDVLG

Structure (SMILES) | microsomal CLint at 2 μM [1] | half-life at 2 μM [1] | IC50 ([2]; numeric values) | microsomal CLint at 2 μM [3] | half-life at 2 μM [3] | microsomal CLint at 2 μM [4] | half-life at 2 μM [4] | IC50 ([2]; class symbols)
Fc1ccc(F)c([C@H]2CCCN2c2ccn3ncc(-c4nc5cc(Cl)c(OC(F)(F)F)cc5[nH]4)c3n2)c1 [Compound 92, (R)-3-(5-chloro-6-(trifluoromethoxy)-1H-benzo[d]imidazol-2-yl)-5-(2-(2,5-difluorophenyl)pyrrolidin-1-yl)pyrazolo[1,5-a]pyrimidine] | 5.6 µL/min/mg | 4.12 h | 20.7 nM | 20.4 µL/min/mg | 1.13 h | 10.2 µL/min/mg | 2.26 h | –
COc1cc2[nH]c(-c3cnn4ccc(N5CCC[C@@H]5c5cc(F)ccc5F)nc34)nc2cc1Cl [Compound 112, (R)-3-(5-chloro-6-methoxy-1H-benzo[d]imidazol-2-yl)-5-(2-(2,5-difluorophenyl)pyrrolidin-1-yl)pyrazolo[1,5-a]pyrimidine] | 27.4 µL/min/mg | 0.843 h | 3.2 nM | 16.8 µL/min/mg | 1.38 h | 34 µL/min/mg | 0.679 h | –
Fc1ccc(F)c([C@H]2CCCN2c2ccn3ncc(-c4nc5cnncc5[nH]4)c3n2)c1 [Compound 76, (R)-2-(5-(2-(2,5-difluorophenyl)pyrrolidin-1-yl)pyrazolo[1,5-a]pyrimidin-3-yl)-1H-imidazo[4,5-d]pyridazine] | 15.6 µL/min/mg | 1.48 h | 0.66 nM | 21.2 µL/min/mg | 1.09 h | 22.2 µL/min/mg | 1.04 h | –
Fc1ccc(F)c([C@H]2CCCN2c2ccn3ncc(-c4nc5cc6c(cc5[nH]4)OC(F)(F)O6)c3n2)c1 [Compound 79, (R)-6-(5-(2-(2,5-difluorophenyl)pyrrolidin-1-yl)pyrazolo[1,5-a]pyrimidin-3-yl)-2,2-difluoro-5H-[1,3]dioxolo[4′,5′:4,5]benzo[1,2-d]imidazole] | 10 µL/min/mg | 2.31 h | 11.9 nM | 10.2 µL/min/mg | 2.26 h | 10.8 µL/min/mg | 2.14 h | –
Fc1ccc(F)c([C@H]2CCCN2c2ccn3ncc(-c4nnc(-c5ccc(N6CCNCC6)cc5)[nH]4)c3n2)c1 [Compound 40, (R)-5-(2-(2,5-difluorophenyl)pyrrolidin-1-yl)-3-(5-(4-(piperazin-1-yl)phenyl)-4H-1,2,4-triazol-3-yl)pyrazolo[1,5-a]pyrimidine] | 12.4 µL/min/mg | 1.86 h | 1.56 nM | 3.2 µL/min/mg | 7.22 h | 4.6 µL/min/mg | 5.02 h | –
Fc1ccc(F)c([C@H]2CCCN2c2ccn3ncc(-c4nnc(-c5ccc6c(c5)CCNC6)[nH]4)c3n2)c1 [Compound 36, (R)-6-(5-(5-(2-(2,5-difluorophenyl)pyrrolidin-1-yl)pyrazolo[1,5-a]pyrimidin-3-yl)-4H-1,2,4-triazol-3-yl)-1,2,3,4-tetrahydroisoquinoline] | 4.6 µL/min/mg | 5.02 h | 1.14 nM | 4.4 µL/min/mg | 5.25 h | 19.2 µL/min/mg | 1.2 h | –
Fc1ccc(F)c([C@H]2CCCN2c2ccn3ncc(-c4nc5cc(F)c(C(F)(F)F)cc5[nH]4)c3n2)c1 [Compound 139, (R)-5-(2-(2,5-difluorophenyl)pyrrolidin-1-yl)-3-(5-fluoro-6-(trifluoromethyl)-1H-benzo[d]imidazol-2-yl)pyrazolo[1,5-a]pyrimidine] | – | – | – | – | – | – | – | > 50 nM
CS(=O)(=O)c1ccc2nc(-c3cnn4ccc(N5CCC[C@@H]5c5cc(F)ccc5F)nc34)[nH]c2c1 [Compound 170, (R)-5-(2-(2,5-difluorophenyl)pyrrolidin-1-yl)-3-(6-(methylsulfonyl)-1H-benzo[d]imidazol-2-yl)pyrazolo[1,5-a]pyrimidine] | – | – | – | – | – | – | – | ≤ 10 nM
N#Cc1cc2nc(-c3cnn4ccc(N5CCC[C@@H]5c5cc(F)ccc5F)nc34)[nH]c2cc1N1CCOCC1 [Compound 143, (R)-2-(5-(2-(2,5-difluorophenyl)pyrrolidin-1-yl)pyrazolo[1,5-a]pyrimidin-3-yl)-6-morpholino-1H-benzo[d]imidazole-5-carbonitrile] | – | – | – | – | – | – | – | ≤ 10 nM
OCC(F)c1nnc(-c2cnn3ccc(N4CCC[C@@H]4c4cc(F)ccc4F)nc23)[nH]1 (stereo partly drawn) [Compound 52, 2-(5-(5-((R)-2-(2,5-difluorophenyl)pyrrolidin-1-yl)pyrazolo[1,5-a]pyrimidin-3-yl)-4H-1,2,4-triazol-3-yl)-2-fluoroethan-1-ol] | – | – | 1.66 nM | – | – | – | – | –

Results, then the compound that gave them:

microsomal CLint at 2 μM [1] | half-life at 2 μM [1] | IC50 ([2]; numeric values) | microsomal CLint at 2 μM [3] | half-life at 2 μM [3] | microsomal CLint at 2 μM [4] | half-life at 2 μM [4] | IC50 ([2]; class symbols) | Structure (SMILES)
10.8 µL/min/mg | 2.14 h | 27.1 nM | 17 µL/min/mg | 1.36 h | 12.2 µL/min/mg | 1.89 h | – | Fc1ccc(F)c([C@H]2CCCN2c2ccn3ncc(-c4nc5cc(OC(F)(F)F)ccc5[nH]4)c3n2)c1 [Compound 71, (R)-5-(2-(2,5-difluorophenyl)pyrrolidin-1-yl)-3-(5-(trifluoromethoxy)-1H-benzo[d]imidazol-2-yl)pyrazolo[1,5-a]pyrimidine]
0.8 µL/min/mg | 28.9 h | 0.44 nM | 5.6 µL/min/mg | 4.12 h | 1.4 µL/min/mg | 16.5 h | – | COc1cc2nc(-c3cnn4ccc(N5CCC[C@@H]5c5cc(F)ccc5F)nc34)[nH]c2cc1C(=O)O [Compound 90, (R)-2-(5-(2-(2,5-difluorophenyl)pyrrolidin-1-yl)pyrazolo[1,5-a]pyrimidin-3-yl)-5-methoxy-1H-benzo[d]imidazole-6-carboxylic acid]
8.4 µL/min/mg | 2.75 h | 23.6 nM | 2.4 µL/min/mg | 9.62 h | 7 µL/min/mg | 3.3 h | – | Fc1ccc(F)c([C@H]2CCCN2c2ccn3ncc(-c4nc5ccc(OC(F)(F)F)cc5o4)c3n2)c1 [Compound 80, (R)-2-(5-(2-(2,5-difluorophenyl)pyrrolidin-1-yl)pyrazolo[1,5-a]pyrimidin-3-yl)-6-(trifluoromethoxy)benzo[d]oxazole]
– | – | 0.73 nM | – | – | – | – | – | Nc1ncnc2nc(-c3cnn4ccc(N5CCC[C@@H]5c5cc(F)ccc5F)nc34)[nH]c12 [Compound 87, (R)-8-(5-(2-(2,5-difluorophenyl)pyrrolidin-1-yl)pyrazolo[1,5-a]pyrimidin-3-yl)-7H-purin-6-amine]
– | – | 1.17 nM | – | – | – | – | – | CN1CCN(c2ccc(-c3nnc(-c4cnn5ccc(N6CCC[C@@H]6c6cc(F)ccc6F)nc45)[nH]3)cn2)CC1 [Compound 54, (R)-5-(2-(2,5-difluorophenyl)pyrrolidin-1-yl)-3-(5-(6-(4-methylpiperazin-1-yl)pyridin-3-yl)-4H-1,2,4-triazol-3-yl)pyrazolo[1,5-a]pyrimidine]
– | – | – | – | – | – | – | ≤ 10 nM | Fc1ccc(F)c([C@H]2CCCN2c2ccn3ncc(-c4nnc(-c5ccc(N6CCOCC6)cc5)[nH]4)c3n2)c1 [Compound 1, (R)-4-(4-(5-(5-(2-(2,5-difluorophenyl)pyrrolidin-1-yl)pyrazolo[1,5-a]pyrimidin-3-yl)-4H-1,2,4-triazol-3-yl)phenyl)morpholine]
– | – | 2.51 nM | – | – | – | – | – | OCC12CC(c3nnc(-c4cnn5ccc(N6CCC[C@@H]6c6cc(F)ccc6F)nc45)[nH]3)(C1)C2 [Compound 43, (R)-(3-(5-(5-(2-(2,5-difluorophenyl)pyrrolidin-1-yl)pyrazolo[1,5-a]pyrimidin-3-yl)-4H-1,2,4-triazol-3-yl)bicyclo[1.1.1]pentan-1-yl)methanol]
– | – | – | – | – | – | – | ≤ 10 nM | N#Cc1ccc2nc(-c3cnn4ccc(N5CCC[C@@H]5c5cc(F)ccc5F)nc34)[nH]c2c1 [Compound 107, (R)-2-(5-(2-(2,5-difluorophenyl)pyrrolidin-1-yl)pyrazolo[1,5-a]pyrimidin-3-yl)-1H-benzo[d]imidazole-6-carbonitrile]

Source: patent US20210395256A1, “TYROSINE KINASE INHIBITORS, COMPOSITIONS AND METHODS THERE OF” (Betta Pharmaceuticals Co., Ltd., priority 2018, published 2021)
